What was measured:
Type in all cases: biochemical
[1] = test system: hydrolases SEQ ID NO: 1-41; assay: Analysis of substrate spectrum of hydrolases (TLC, HPLC-MS, GC-MS); further: key: '+'- active; ' –' inactive towards derivative
Method: A hydrolytic activity of enzymes was analysed by thin-layer chromatography (TLC), high-performance liquid chromatography and a mass spectrometry (HPLC-MS) and Gas chromatography and a mass spectrometry (GC-MS) methods. Nucleosides, as substrates and hydrolysis reaction products, were tested by thin-layer chromatography (TLC) method and by a high-performance liquid chromatography - mass spectroscopy (HPLC-MS) method. Other reaction products were detected by Gas chromatography-Mass spectrometry (GC-MS) system. […] The conditions of the reactions are given below.
Hydrolysis products test by thin-layer chromatography (TLC) method. A hydrolytic activity was assayed in reaction mixture containing 45 mM potassium phosphate buffer, pH 7.5, 1 µl enzyme (0.1-4.6 µg/reaction) and 4 mM substrate. The total reaction mix volume was 20 µl. Reaction mixture were incubated at 30 °C temperature up to 3 h and at RT overnight. Thin-layer chromatography (TLC) was conducted on the Merck silica gel 60 F254 plates, using the chloroform and methanol (5:1) mixture of solvents.
High-performance liquid chromatography/mass spectrometry (HPLC-MS) analysis of hydrolysis reaction products. […] Mass scans were measured from m/z 10 up to m/z 500, at 350 °C interface temperature, 250 °C DL temperature, ±4,500 V interface voltage, neutral DL/Qarray, using N 2 as nebulizing and drying gas. Mass spectrometry data was acquired in both the positive and negative ionization mode. The data was analysed using the LabSolutions LCMS software. For HPLC-MS analysis, the reaction mixture consisted of 45 mM potassium phosphate buffer (pH 7.5), 2 mM substrate (from 50-100 mM stock in DMSO), and protein (-0.5-1 mg/ ml). Reaction mixture was incubated at 30 °C temperature up to 3 h and at RT overnight.
Gas chromatography-Mass spectrometry (GC-MS) analysis of hydrolysis reaction products. GC-MS analyses were performed with a Shimadzu GCMS-QP2010 Ultra Plus (Kyoto, Japan). […] Temperature program -50°C (1 min), 50°C →250 °C (25 °C/min), total run time - 15 min. The temperatures of injector, interface and ion source were 250°C.
For GC-MS analysis, the reaction mixture consisted of 45 mM potassium phosphate buffer (pH 7.5), 2.4 mM substrate (from 50-100 mM stock in DMSO), and protein (-0.5-1 mg/ ml). The total reaction mix volume was 1000 µl. The hydrolysis reaction products were extracted with ethyl acetate (3x 400 µl).

[2] = test system: hydrolase Seq ID No: 3 (metagenomic hydrolase); assay: Spectrophotometric assay of hydrolytic activity (kinetic parameters); settings: potassium phosphate buffer, pH 7.5, 22 °C
Method: (§1) For the spectrophotometric assay, the reaction was started by adding an appropriate amount of protein to potassium phosphate buffer, pH 7.5 supplemented with 0.3, 0.15, 0.1, 0.075, 0.05, 0.0375, 0.025, 0.0125 mM N^4-benzoyl-2'-deoxycytidine, or 1, 0.8, 0.5, 0.4, 0.25, 0.2, 0.1, 0.05 mM 2'-deoxycytidine. Then, decreases in absorbance at either 310 for N^4-benzoyl-2'-deoxycytidine or 290 nm for 2'-deoxycytidine were recorded at 22 °C. Kinetic parameters (Table x) were calculated using Imfit-py 1.0.2 software fitting the experimental data to a simple Michaelis-Menten kinetics scheme. Table 5. Kinetic parameters of hydrolases. Substrate: BzdC - N4-benzoyl-2'-deoxycytidine; dC-2'-deoxycytidine.

[3] = biological target: hydrolase Seq ID No: 1 (metagenomic, wild-type hydrolase) (uncultured bacterium, UniProt A0ACD6BAS6); assay: as above; settings: potassium phosphate buffer, pH 7.5, 22 °C
Method: as §1

[4] = biological target: hydrolase variant Seq ID No:13 (site-directed mutant) (uncultured bacterium, UniProt A0ACD6BAS6, form not given/G85I); assay: as above; settings: potassium phosphate buffer, pH 7.5, 22 °C, 310 nm (BzdC) or 290 nm (dC)
Excerpt: (§2) Mutations in the hydrolase's genes were introduced using methodology based on "Phusion™ Site-Directed Mutagenesis Kit" (Thermo Fisher Scientific). For specific mutagenesis, primer pairs meant to amplify the whole plasmid with the target protein gene, where one primer has miss-matched base pairs in the middle, were created (Fw/Rv): […]/[…] (SEQ ID NO:10); [formula] [formula] […]/[…] (SEQ ID NO:13); [formula] [formula] […]/[…] and […]/[…] (SEQ ID NO: 16, SEQ ID NO: 17, SEQ ID NO: 18); [formula] […]/[…] (SEQ ID NO: 21); [formula] […]/[…] (SEQ ID NO: 23); […]/[…] (SEQ ID NO: 24).
as §1

[5] = biological target: hydrolase variant Seq ID No: 15 (site-directed mutant) (uncultured bacterium, UniProt A0ACD6BAS6); assay: as above; settings: potassium phosphate buffer, pH 7.5, 22 °C, 310 nm (BzdC) or 290 nm (dC)
Excerpt: as §2, §1

[6] = 310 nm (BzdC) or 290 nm (dC), unit not given
[7] = absorbance decrease at 310 nm (BzdC) or 290 nm (dC), Michaelis-Menten fit

Chain of hydrolase Seq ID No: 1 (metagenomic, wild-type hydrolase) (A0ACD6BAS6 entry or part of it): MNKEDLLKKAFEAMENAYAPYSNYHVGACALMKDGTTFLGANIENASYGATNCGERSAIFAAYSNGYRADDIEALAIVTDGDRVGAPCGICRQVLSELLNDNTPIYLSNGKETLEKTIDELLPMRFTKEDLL
Chain of hydrolase variant Seq ID No: 15 (site-directed mutant) (A0ACD6BAS6 entry or part of it, change not shown): as the sequence (A0ACD6BAS6 entry or part of it) above
Chain of hydrolase variant Seq ID No:13 (site-directed mutant) (A0ACD6BAS6 entry or part of it G85I, form open): as the sequence (A0ACD6BAS6 entry or part of it) above

Compound | Hydrolysis of S^4-alkyl uridine derivatives ([1]; enzyme SEQ ID No:1) | Hydrolysis of S^4-alkyl uridine derivatives ([1]; enzyme SEQ ID No:2) | Hydrolysis of S^4-alkyl uridine derivatives ([1]; enzyme SEQ ID No:3) | Hydrolysis of S^4-alkyl uridine derivatives ([1]; enzyme SEQ ID No:4) | Hydrolysis of S^4-alkyl uridine derivatives ([1]; enzyme SEQ ID No:6) | Hydrolysis of S^4-alkyl uridine derivatives ([1]; enzyme SEQ ID No:9) | Hydrolysis of S^4-alkyl uridine derivatives ([1]; enzyme SEQ ID No:25) | Hydrolysis of S^4-alkyl uridine derivatives ([1]; enzyme SEQ ID No:27) | Hydrolysis of S^4-alkyl uridine derivatives ([1]; enzyme SEQ ID No:28) | Hydrolysis of S^4-alkyl uridine derivatives ([1]; enzyme SEQ ID No:30) | Hydrolysis of S^4-alkyl uridine derivatives ([1]; enzyme SEQ ID No:32) | Hydrolysis of S^4-alkyl uridine derivatives ([1]; enzyme SEQ ID No:34) | Hydrolysis of S^4-alkyl uridine derivatives ([1]; enzyme SEQ ID No:35) | Hydrolysis of S^4-alkyl uridine derivatives ([1]; enzyme SEQ ID No:36) | Hydrolysis of S^4-alkyl uridine derivatives ([1]; enzyme SEQ ID No:37) | Hydrolysis of S^4-alkyl uridine derivatives ([1]; enzyme SEQ ID No:38) | also measured
CSc1nc(=O)n([C@@H]2O[C@H](CO)[C@@H](O)[C@H]2O)cc1F [5-F-4-S-methyl-U] | + | + | + | + | + | + | + | + | + | + | + | + | + | + | + | + | Hydrolysis of S^4-alkyl uridine derivatives ([1]; enzyme SEQ ID No:26): +; Hydrolysis of S^4-alkyl uridine derivatives ([1]; enzyme SEQ ID No:29): +; Hydrolysis of S^4-alkyl uridine derivatives ([1]; enzyme SEQ ID No:33): +
CCSc1nc(=O)n([C@@H]2O[C@H](CO)[C@@H](O)[C@H]2O)cc1F [5-F-4-S-ethyl-U] | + | + | + | + | + | + | + | + | + | + | + | + | + | + | + | + | –
Nc1ccn([C@H]2C[C@H](O)[C@@H](CO)O2)c(=O)n1 [dC, 2'-deoxycytidine] | – | – | – | – | – | – | – | – | – | – | – | – | – | – | – | – | kcat ([2]; 310 nm (BzdC) or 290 nm (dC)): (2.09 +/- 0.09) ×10^-1 s^-1; Vmax [2, 6]: (1.20 ± 0.05) × 10^-4; Km [2, 7]: 182 µM; kcat ([3]; 310 nm (BzdC) or 290 nm (dC)): (24.4 ± 1.71) × 10 ^-1 s^-1; Vmax [3, 6]: (2.67 ± 0.19) × 10^-4; Km [3, 7]: 195 µM; kcat [4]: (6.87 ± 0.80) × 10 ^-1 s^-1; Vmax ([4]; unit not given): (4.35 ± 0.51) × 10^-4; kcat [5]: (2.58 ± 0.09) × 10^-2 s^-1; Vmax ([5]; unit not given): (6.70 ± 0.24) × 10^-5
O=c1nc(SCc2ccccc2)c(F)cn1[C@@H]1O[C@H](CO)[C@@H](O)[C@H]1O [5-F-4-S-benzyl-U] | + | + | + | + | – | + | + | – | – | + | – | + | + | – | – | – | –
CC(C)CSc1ccn([C@@H]2O[C@H](CO)[C@@H](O)[C@H]2O)c(=O)n1 [4-S-iso-butyl-U] | + | – | + | + | – | – | – | – | – | – | – | – | – | – | – | – | –

— patent publication EP4299736A2, “HYDROLASES AND USES THEREOF” (Vilnius University, priority 2022, dated 2024)
